The source of these data is PubChem BioAssay AID2423 (Broad Institute, 2010).

The subject of this assay is C. albicans CaCi-8 + fluconazole, Alamar Blue growth, 48 h. The assay can be described thus: resistant C. albicans growth inhibition with fluconazole, dose response, CaCi-8 strain, Alamar Blue fluorescence (AID 2423).

Records with an inconclusive call do not appear. Activity calls are given as the source filed them. The rule behind the calls is not given here.

Turning to `N/C(Cc1ccc(Cl)c(Cl)c1)=N\OC(=O)c1cccs1`, the EC50 is 0.893 µM.
The same measure for `Cc1onc(-c2ccccc2Cl)c1C(=O)Nc1sc2c(c1C#N)CCC2`: less than 0.12 µM; for `CCc1ccc(/C=C2/SC(=S)N(CCCC(=O)Nc3ccccc3C(=O)O)C2=O)cc1`: 0.982 µM.
For `O=C(c1cc2c(s1)CCCCC2)N1CCN(c2ncccn2)CC1`, the EC50 is 0.135 µM.
The same measure for `N=C1/C(=C/c2cccn2-c2ccc([N+](=O)[O-])cc2)C(=O)N=C2SC=CN12`: > 16 µM (inactive).
Consider `CC(C)(C)c1ccc(C(=O)CC(=O)c2cc(Cl)ccc2O)cc1`, for which the concentration for a half-maximal effect (EC50) was 4.77 µM.
The figure for `CC1=C(C(N)=O)C(c2ccc(C)o2)C(C(N)=O)=C(C)N1` is > 16 µM (inactive).
As for `C[n+]1c(-c2ccccc2)c2cc(N)ccc2c2ccc(N)cc21`, the EC50 is > 16 µM (inactive).
The figure for `Cc1nnc(N/N=C/c2ccccn2)[nH]c1=O` is 2.25 µM; for `CCc1nnc(NC(=O)Cn2ccc(C(F)(F)F)n2)s1` it is > 15 µM (inactive); for `Cc1ccc(C(=O)CC(=O)COc2ccc(Cl)cc2)cc1` it is 2.98 µM.
The figure for `CCN(c1ccccc1)S(=O)(=O)c1ccc(Cl)c(NC(=O)CN2C(=O)NC3(CCCC3)C2=O)c1` is > 15 µM (inactive); for `CC(=O)O/N=C/c1c(N2CCOCC2)n(C)c2ccccc12` it is 0.403 µM; for `CC(c1ccc(Cl)cc1)n1c(-c2ccc3ccccc3n2)n[nH]c1=S` (stereo unspecified) it is 5.26 µM.
As for `O=C(Nc1cccc(-c2cn3c(n2)SCC3)c1)c1ccc(Br)o1`, the 50% effective concentration (EC50) is 2.71 µM.
The same measure for `Cn1c(-c2c(N)n(CCc3ccccc3)c3nc4ccccc4nc23)nc2ccccc21`: 6.18 µM; for `O=C(NC(=S)Nc1ccccc1O)c1ccc(Cl)cc1Cl`: 0.624 µM; for `O=C(CCS(=O)(=O)c1ccc(Cl)cc1)Nc1nc(-c2ccncc2)cs1`: 0.709 µM.
Turning to `Nc1nn2cc(-c3ccc(Br)cc3)nc2c2ccccc12`, the EC50 was 0.962 µM.
The same measure for `C/C(=N\NC(=O)c1cccc(N/N=C(\C)c2cc(O)ccc2O)c1)c1cc(O)ccc1O`: > 15 µM (inactive).
With `COc1ccc(OC)c(Nc2nc(-c3ccc(O)c(O)c3)cs2)c1`, the concentration for a half-maximal effect (EC50) was 10.8 µM.
The same measure for `c1ccc(CC2CCN(c3ncnc4sccc34)CC2)cc1`: 1.53 µM; for `CCSc1ccc2cc(OC)ccc2[n+]1CC`: 4.71 µM.
In the case of `CC12CCC(C(=O)N(NC(=O)c3ccccc3O)C1=O)C2(C)C` (stereo unspecified), the EC50 was 13.9 µM.
The figure for `O=C(Cc1ccc([N+](=O)[O-])cc1)NNC(=O)c1ccc2c(c1)OCO2` is > 15 µM (inactive); for `Cc1nc(-n2[nH]c3c(c2=O)CCCC3)[nH]c(=O)c1Cc1ccccc1` it is 0.541 µM.
The same measure for `COCCN1C(=O)C(O)=C(C(=O)c2ccco2)C1c1cccc(Oc2ccccc2)c1` (stereo unspecified): 3.84 µM; for `O=C(Oc1c(Cl)cc(Cl)c2cccnc12)c1cccc([N+](=O)[O-])c1`: 0.444 µM; for `COc1ccc(-c2nnc(NC(=O)c3cc(Cl)ccc3Cl)o2)cc1`: 1.12 µM.
The same measure for `O=C(N/N=C/c1cc([N+](=O)[O-])ccc1O)c1ccc(COc2ccc3c(c2)CCC3)o1`: 0.915 µM.
Regarding `Cc1cc(C(=O)Nc2nc(-c3ccccn3)cs2)ccc1[N+](=O)[O-]`, the EC50 is 0.96 µM.
The figure for `Cc1nn(-c2ccccc2)c(C)c1C(=O)Nc1nnc(-c2ccco2)o1` is 0.421 µM; for `CCN(CC)S(=O)(=O)c1ccc(N/N=C/c2ccc(O)cc2O)nc1` it is 0.644 µM; for `CCC(=O)N1CCN(c2ccc(Cl)cc2NC(=O)c2ccc3c(c2)OCCO3)CC1` it is 0.811 µM.
In the case of `OCc1ccc(O)c2ncccc12`, the half-maximal effective concentration (EC50) is 12.4 µM.
The figure for `O=C(Oc1c(CN2CCOCC2)cc(Cl)c2cccnc12)c1cccs1` is 3.4 µM.
As for `Cc1cccc(N2CCc3c2nc2ccc(Br)cc2c3N)c1`, the half-maximal effective concentration (EC50) was 1.61 µM.
As to `Cc1ccc(C(=O)NCc2ccco2)cc1S(=O)(=O)Nc1cccc(Cl)c1`, the EC50 was > 15 µM (inactive).
On to `CCOC(=O)Cc1csc(NC(=O)CSc2nc3sc(C(=O)O)c(C)c3c(=O)[nH]2)n1`, for which the EC50 was > 16 µM (inactive).
The same measure for `O=C(CCS(=O)(=O)Cc1ccccc1)Nc1nnc(C(F)(F)F)s1`: 0.746 µM; for `Cc1cccc2sc(NNC(=O)c3cc(-c4cccs4)nc4ccccc34)nc12`: 0.583 µM.
For the compound `CON/C=C(\C=Nc1ccc(Cl)cc1Cl)c1ncc(C(F)(F)F)cc1Cl`, the EC50 is > 16 µM (inactive).
Turning to `O=C(O)CSc1nc(-c2ccc(Cl)cc2)nc2c1oc1ccccc12`, the EC50 is 1.51 µM.
The same measure for `CCN(CC)c1nc(N)c2c(N)nc3c(c2c1C#N)CC(c1ccccc1)O3` (stereo unspecified): > 16 µM (inactive); for `COc1cc(OC)c2cc(C(=O)N/N=C/c3ccccc3O)[nH]c2c1`: 1.24 µM.
The same measure for `O=C(Nc1ccccc1)OCN1C(=O)c2ccccc2C1=O`: > 15 µM (inactive); for `CCOC(=O)c1c(-c2ccccc2)oc2ccc(OCC(O)CN(C)C)cc12` (stereo unspecified): 1.29 µM.
The same measure for `Cc1ccc(/C=C/C(=O)c2ccccc(=O)c2O)cc1C`: 2.71 µM; for `Oc1cccc(C(Nc2nccs2)c2ccc3cccnc3c2O)c1` (stereo unspecified): 1.39 µM; for `COc1ccc(/C=N/NC(=O)c2cc(O)c(O)c(O)c2)cc1Cn1cc([N+](=O)[O-])cn1`: 1.44 µM.
With `COc1ccccc1-n1c(C)cc(SC)c(C(C)=O)c1=S`, the EC50 was > 15 µM (inactive).
For `O=C(N/N=C/c1cc([N+](=O)[O-])ccc1O)/C(=C\c1cccs1)NC(=O)c1ccccc1`, the 50% effective concentration (EC50) was 3.59 µM.
The same measure for `Cc1ccc(C(=O)NC(=O)OCCn2c(C)cnc2[N+](=O)[O-])cc1`: > 16 µM (inactive); for `O=C1/C(=C/c2cccnc2)CCc2c1[nH]c1ccccc21`: 1.24 µM; for `O=[N+]([O-])c1cccnc1S(=O)(=O)c1ccccc1`: 0.865 µM.
`O=C(CSc1ccc(Cl)cc1)Nc1nnc(-c2ccco2)o1`: the concentration for a half-maximal effect (EC50) is 2.72 µM.
The same measure for `Cc1ccc(NC(=O)NC2CCCCCCC2)c(C)c1`: > 16 µM (inactive); for `Cc1ccc(-c2nnc(NC(=O)c3ccc([N+](=O)[O-])o3)o2)c(C)c1`: 2.16 µM; for `Oc1c(C(Nc2nccs2)c2ccc(C(F)(F)F)cc2)ccc2cccnc12` (stereo unspecified): 0.601 µM.
Consider `CC1CCC(C(=O)c2c(O)c3ccccc3oc2=O)CC1` (stereo unspecified), for which the concentration for a half-maximal effect (EC50) was 2.9 µM.
The same measure for `CC(=O)N(Cc1ccc(F)cc1)C1=C(NCc2ccccc2)C(=O)c2ccccc2C1=O`: 0.596 µM; for `Cc1ccc(SCC(=O)Nc2ccc3c(c2)C(=O)N(C)C3=O)cc1`: > 15 µM (inactive); for `COc1ccc(Cl)cc1C(Nc1cccnc1)c1ccc2cccnc2c1O` (stereo unspecified): 1.02 µM.
Consider `CCCOCc1ccc(O)c2ncccc12`, for which the EC50 was 2.17 µM.
The same measure for `COc1ccc(NC(=O)/C(C#N)=C\c2ccc(N3CCOCC3)o2)cc1`: 3.76 µM.
The same measure for `Oc1ccccc1C(Nc1nccs1)c1ccc2cccnc2c1O` (stereo unspecified): 2.73 µM; for `COCc1nnc(NC(=O)c2ccc(S(=O)(=O)N3CCCc4ccccc43)cc2)o1`: 10.5 µM; for `Clc1ccc2c(c1)C(c1cccs1)=NNC(c1cccnc1)=N2`: less than 0.12 µM.
The figure for `C=C1C(=O)O[C@@H]2C[C@@H](C)[C@@H]3C4OC4C(=O)[C@@]3(C)[C@@H](O)[C@H]12` (stereo partly specified) is 0.219 µM; for `CCCNC(=O)c1ccc2c(=O)c(O)c(-c3cccc(Br)c3)[nH]c2c1` it is 3.04 µM.
As for `CCN1/C(=C/c2ccc3cccc(C)c3[n+]2CC)Sc2ccccc21`, the EC50 is less than 0.12 µM.
The figure for `Oc1nc(Nc2ccccc2)sc1/C=C1\C=Nc2ccccc21` is 1.63 µM.
The figure for `CC(C)c1ccc2c(c1)C(N1CCNCC1)Cc1ccc(F)cc1S2` (stereo unspecified) is 7.17 µM; for `O=C1C2CCCN2C(c2ccccc2)N1c1ccccn1` (stereo unspecified) it is > 16 µM (inactive).
Turning to `COCC(=O)Nc1nc2n(n1)C(c1ccccc1Cl)CC(c1ccc(OC)cc1)N2` (stereo unspecified), the EC50 is > 16 µM (inactive).
Consider `O=C1c2ccccc2NC(c2cnc3ccccc3n2)N1O` (stereo unspecified), for which the EC50 was > 16 µM (inactive).
`CCOC(=O)CSc1ccc(C(=O)N2CCN(C)CC2)cc1[N+](=O)[O-]`: the EC50 is > 16 µM (inactive).
Turning to `CCCCCc1ccc(OCCCC[n+]2ccc(C)cc2)c(CCCCC)c1`, the EC50 is > 16 µM (inactive).
The figure for `Nc1nonc1-n1nnc(C(=O)N/N=C/c2cc(Br)ccc2O)c1CSC1=NCCS1` is 0.359 µM.
The figure for `NC(=O)CC12CC3CC(C1)CC(CC(N)=O)(C3)C2` is > 16 µM (inactive); for `COc1ccc(-c2n(CC(=O)OC3CC(C)CCC3C(C)C)c3ccccc3[n+]2C)cc1` (stereo unspecified) it is 0.365 µM; for `O=C(NNC(=O)c1cc2ccccc2cc1O)NC1CCCCC1` it is 13.6 µM.
In the case of `CC(=O)c1c(C)[nH]c(C(=O)Nc2ccc(C)c(C)c2)c1C`, the EC50 was 3.45 µM.
Turning to `O=C(/C=C/c1ccccc1)NC(=S)Nc1ccc(N2CCOCC2)c(Cl)c1`, the EC50 is > 16 µM (inactive).
The same measure for `Cc1ccsc1/C=N/NS(=O)(=O)c1ccc([N+](=O)[O-])cc1`: 7.37 µM.
`O=c1c2cc(Br)ccc2nc(-c2ccccc2)n1O`: the EC50 was 2.08 µM.
The same measure for `S=c1[nH]nc(C2CCCCC2)n1/N=C/c1ccc(Br)s1`: 1.94 µM; for `COc1cccc(CN(C(=O)c2cc3ccccc3oc2=O)C2CC2)c1`: > 15 µM (inactive); for `Cc1n[nH]c(=S)n(NC(=O)CC(=O)Nn2c(=S)[nH]nc(C)c2=O)c1=O`: less than 0.12 µM.
The same measure for `O=C(NCc1ccc(F)cc1)c1ccc(CS(=O)(=O)Cc2ccccc2F)o1`: > 15 µM (inactive); for `O=C(c1ccc(Cl)cc1)N1CCN(c2ccnc3cc(Cl)ccc23)CC1`: 0.863 µM.
The same measure for `CCOc1ccc(Nc2nc(NCC3CCCO3)c3ccccc3n2)cc1` (stereo unspecified): 1.98 µM; for `CCN(CC)c1ccc(/C=N/NC(=O)c2cccc(S(=O)(=O)N3CCOCC3)c2)c(O)c1`: 0.513 µM.
On to `Cc1cccc(Sc2nc(-c3ccccc3)ncc2C(=O)O)c1`, for which the EC50 is > 15 µM (inactive).
The same measure for `COc1ccc(-n2nc(C(=O)NCC(=O)NCCC3=CCCCC3)c3ccccc3c2=O)c(OC)c1`: 0.232 µM; for `CCCC(=O)NC(c1ccc(C(C)C)cc1)c1ccc2cccnc2c1O` (stereo unspecified): 0.659 µM.
